These results are taken from patent US10555957B2, “Methods and compositions for enriching DHA levels in the brain” (The Board of Trustees of the University of Illinois, a body …, priority 2017, dated 2020).

The conditions of data set [1]: ref [32]; cited from earlier work.
Data set [2] in a line: Intestinal absorption of micellar DHA into lymph (HDL, chylomicrons; PC, TAG) in rats with lymph duct cannulation. It is filed as in vivo, Sprague-Dawley rats. As for the experimental part:
Two types of micelle, one containing the DHA as free fatty acid, and the other containing the DHA as LPC, were prepared by sonication. All components except taurocholate were added as chloroform solutions to a glass tube and the solvent was evaporated under nitrogen. Then 10 ml of sodium taurocholate solution (12 mM, in PBS, pH 7.4) was added to the tube and the lipids dispersed by vortexing for 1 min. The mixture was then sonicated in a Sonics Vibro Cell sonicator at 40% setting for four 30 sec pulses at 1 min intervals, while the tube was immersed in ice. The resulting micelle were optically clear, and were used immediately for infusion into rats.
Thoracic lymph duct cannulation was carried out as described with slight modifications. The rats were fasted overnight before the procedure. Under analgesics and isoflurane anesthesia, the abdomen was opened, the dorsal parietal peritoneum was incised, and the aorta was dissected free from the surrounding muscle and thoracic duct. The duct was cannulated (3-5 mm) with a heparin (500 units/ml) and saline-rinsed, pre-cut catheter (16 gauge, BD Angiocath). Following insertion, the catheter was connected to ‘U” shaped secured Silastic Laboratory tubing to prevent displacement or dislodgement. Micelle (10 ml) were infused at a rate of 3 ml/h into the duodenum (Harvard pump) through a second catheter positioned into the duodenum, followed by the infusion of 10 ml PBS, at 3 ml/h. The abdomen was closed and the lymph was collected for 6 h, in 30 min fractions into tubes containing 1.0 ml of PBS, while the animal was under anesthesia. The body temperature of the animal was maintained at 37° C. with the help of a heating pad.
The volume of each lymph fraction was made up to 2.0 ml with PBS, containing 1 mM EDTA (final). The density of lymph fraction was raised to 1.063 g/ml by the addition of KBr and centrifuged at 100,000×g for 4 h at 4° C. in the TLA 100.3 rotor of the Beckman TL-100 ultracentrifuge. One ml of the bottom layer was aspirated to a new tube (HDL) and the remaining 1.0 ml was taken as the chylomicrons (CM).
Extraction and Analysis of Lipids. The total lipids of HDL and CM were extracted by the Bligh and Dyer method after spiking the samples with 25 μg each of 15:0-15:0-15:0 TAG and 17:0-17:0 PC. The lipid extract was applied to an aminopropyl silica cartridge (100 mg) in 1 ml of chloroform under gravity, and the cartridge was washed with chloroform (2×1.0 ml) to elute the TAG and cholesteryl esters. […] The PC was then eluted with 2.0 ml of chloroform: methanol (3:2, v/v)).
The temperature program was as follows: 165° C. for 1 min, raised to 210° C. at the rate of 6.5° C./min, followed by raising to 240° C. at the rate of 3.5° C./min, and maintaining at 240° C. for 10 min. The total analysis time was 26.5 min. The injection temperature was 250° C., ion source temperature 230° C. and the interface temperature was 250° C. […] The identification of individual FAME was done by comparison of retention times with the standard mixture (PUFA2, Sigma) as well as by the characteristic fragment ions (m/z 74 for saturated, m/z 55 for monounsaturated, m/z 67 for diunsaturated, and m/z 79 for polyunsaturated).

Another data set deals with normal adult mice. Put plainly: Morris water maze test. It is filed as in vivo, C57BL/6 mice. As to conditions: for latency time to the previous platform area / time in the target quadrant: n=5; for finding the previous platform area, faster than the control and free DHA groups / time spent in the target quadrant versus control and free DHA groups: study 1, probe trial.
In another data set the test system is BDNF. Briefly: BDNF concentration in the brain regions by ELISA. It is filed as in vivo, C57BL/6 mice. Conditions: 1 mg DHA/day, 30 days, n=6. For orientation: An ELISA detects its analyte on a solid surface through an enzyme-linked reagent.
Data set [3] is described as follows: Feeding study, daily gavage for 30 days: fatty acid and DHA lipid species of plasma, liver, heart, adipose tissue and brain regions.
Data set [4] in a line: Feeding free EPA or LPC-EPA for 15 days: omega 3 fatty acids and arachidonic acid in tissues. As to conditions: oral. It is filed as in vivo, Mice. As for the experimental part:
Mice were fed oral preparations of free EPA or LPC-EPA at about 1 mg/kg per day for 15 days. The compounds were dispersed in corn oil (80 μl) and fed daily by gavge.

Assay in data set [5]: as above
It is filed as in vivo, Mice. As to conditions: 1 mg EPA/day for 15 days.

Data set [6] can be described thus: Isomerization / isomer stability of LPC-DHA. It is filed as physicochemical. As for the experimental part:
LPC-DHA was prepared by the hydrolysis of 16:0-22:6 PC by immobilized Mucor lipase (Lipozyme) by a modification of the published procedure. Briefly, 100 mg of Lipozyme was added to 50 mg of 16:0-22:6 PC dissolved in 1 ml of 95:5 (v/v) ethanol: water. The reaction mixture was incubated at 37° C. for 72 h under nitrogen with shaking. The reaction mixture was dried under nitrogen and extracted with 4 ml of ethanol: water: hexane (2:1:1, by vol) mixture to remove the free fatty acid. The lower layer was concentrated under nitrogen and extracted by Bligh and Dyer procedure. The final sample contained 95% LPC, the rest being unhydrolyzed PC, as determined by lipid phosphorus estimation after TLC separation. Although this enzyme produces sn-2 22:6 LPC, this isomer is unstable, and is non-enzymatically isomerized to sn-1-22:6 LPC [24,25].
sn-2 DHA LPC was prepared by the hydrolysis of 16:0-22:6 PC with immobilized Mucor lipase (Lipozyme) by a modification of the published procedure^44. […] The preparation contained >95% of lipid phosphorus in LPC DHA and the rest in unhydrolyzed PC, as determined by TLC, and was used for feeding studies without further purification. […] More than 95% of the 2-acyl LPC DHA was converted to 1-acyl isomer under these conditions, as determined by LC/MS.

For data set [7] the following is noted: cited from earlier work.
[8] abbreviates: about 1 mg/kg per day for 15 days.

Several values for one entry are separate records, joined by “and”; a condition that tells them apart may be missing. Identical values can stand only once.

Description for BDNF: Therefore, we determined BDNF concentration in the brain regions by ELISA to complement our MWM data.

Take `CCCCCCCCCCCCCCCC(=O)OCC(O)COP(=O)([O-])OCC[N+](C)(C)C` (stereo not drawn) [16:0 LPC]: in [1], the “recovery of 16:0 in lymph PC after infusion of 16:0 LPC” value is 25-30%.
With `CC/C=C\C/C=C\C/C=C\C/C=C\C/C=C\C/C=C\CCC(=O)O` [free DHA, (4Z,7Z,10Z,13Z,16Z,19Z)-docosa-4,7,10,13,16,19-hexaenoic acid, reference compound], the “percentage of 22:6/22:6/18:1 TAG species” value in data set [2] (HDL and CM, free DHA compared to LPC-DHA) was “significantly higher”. The “TAG species containing DHA at all 3 positions” value in data set [2] (free DHA compared to LPC-DHA absorption) is “significantly higher”. In data set [2], the “significant amount of free DHA in the lymph after infusion” value was “not observed”. In the data set on normal adult mice (second study, probe trial), the “latency time to the previous platform area” value worked out at 47.1 s and the “time in the target quadrant” value came out at 12 s. The “BDNF content in regions of the brain” value in the data set on BDNF is “no change”. Moreover, in data set [3] (1 mg DHA/day, 30 days), the “DHA concentration and 22:6/20:4 ratio in adipose tissue” value was “increase”. In data set [3] (LC/MS/MS), the “20:4-22:6 PC in the hippocampus” value was “increased”, the “DHA-PC species in plasma” value is “not”, the “major species of DHA-PE in the hippocampus” value is “not” and the “plasma TAG species containing DHA” value is “increased more”. Also, the “LPC DHA concentration of plasma” value in data set [3] (LC/MS/MS, 1 mg DHA/day, 30 days) was “not”. The “22:6/20:4 ratio in brain regions” value in data set [3] (all regions of brain) is on record as “no significant increase”. For the same compound, the “increase of brain DHA levels in normal adult mice” value in [3] (equal amount of DHA, 30 days) is reported as “did not appreciably increase”.
As for `CC/C=C\C/C=C\C/C=C\C/C=C\C/C=C\CCCC(=O)O` [free EPA, eicosapentaenoic acid], in data set [4] (15 days), the “all three n-3 fatty acids in the liver” value is given as “increased”, the “decrease in liver arachidonic acid level” value was roughly 60% and the “decrease of brain content of arachidonic acid” value is listed as roughly 12%. In data set [4] (setting [8]), the “increase of brain EPA (in words)” value was “to a small extent” and the “increase of total amount of brain Omega 3 fatty acids (EPA+DPA+DHA)” value is “no change”. Also, the “increase of brain DHA content” value in data set [4] (about 1 mg/kg per day for 15 days, corn oil gavage) is “no effect”. In data set [5], the “enriching the total omega 3 fatty acids in the heart” value is “equally efficient”, the “omega 3 fatty acid content of adipose tissue” value is on record as “enriched more” and the “omega 3 fatty acids in erythrocytes” value was “increased”.
Take `CC/C=C\C/C=C\C/C=C\C/C=C\C/C=C\C/C=C\CCC(=O)OC[C@@H](O)COP(=O)([O-])OCC[N+](C)(C)C` [sn-1 DHA LPC]: the “acquisition phase, learning the location of the platform by Day 5” value in the data set with normal adult mice (second study) was “faster”. In the data set with normal adult mice (second study, probe trial), the “latency time to the previous platform area” value turned out to be 12.7 s and the “time in the target quadrant” value came to 29.9 s. In the data set with normal adult mice, the “finding the previous platform area, faster than the control and free DHA groups” value was 7 times; the “time spent in the target quadrant versus control and free DHA groups” value is on record as “twice as long”. Further, the “BDNF content in regions of the brain” value with BDNF is on record as “significantly increased”. For the same compound, in data set [3] (mouse, in vivo), the “18:1-22:6 PC in plasma, between the two LPC isomers” value was “greater increase”; the “22:6/20:4 ratio in liver” value was “significantly increased”; the “DHA concentration in liver” value was “did not reach statistical significance”; the “enrichment of all the brain regions with DHA” value is reported as “significantly enriched”. In [3] (mouse, in vivo), the “increase in plasma LPC DHA, sn-1 DHA LPC compared to sn-2 DHA LPC” value was 28%; the “increase of DHA content (nmol/mg) in striatum and amygdala” value is reported as “did not reach statistical significance”.
As for `CC/C=C\C/C=C\C/C=C\C/C=C\C/C=C\C/C=C\CCC(=O)O[C@H](CO)COP(=O)([O-])OCC[N+](C)(C)C` [sn-2 DHA LPC], in the data set on normal adult mice, the “finding the previous platform area, faster than the control and free DHA groups” value is on record as 7 times; the “time spent in the target quadrant versus control and free DHA groups” value is “twice as long”. Further, in the data set on BDNF, the “BDNF content in regions of the brain” value is given as “significantly increased”. Further, in data set [6] (physiological pH and temperature, unpublished results), the “isomerization to the sn-1 isomer, compared with sn-2 16:0 LPC” value is listed as “much slower”. Further, in [6] (stored in chloroform: methanol (9:1) at −20° C., at least 4 weeks), the “LPC remaining as sn-2 isomer” value is reported as “Over 90%”. For the same compound, in data set [3] (1 mg DHA/day, 30 days), the “22:6/20:4 ratio in liver” value is on record as “increase”, the “DHA concentration in liver” value is “significantly increased” and the “concentration of 20:4 in liver” value was “parallel decrease”. In addition, the “enrichment of all the brain regions with DHA” value in data set [3] (cortex, cerebellum, hippocampus, striatum, amygdala, % of total fatty acids) is given as “significantly enriched”.
On to “docosahexaenoic acid-lysophosphatidylcholine [LPC-DHA]”, for which the “percentage of 16:0/22:6 PC” value in data set [2] (HDL and CM, LPC-DHA compared to free DHA absorption) is on record as “significantly lower”. Moreover, the “significant amount of free DHA in the lymph after infusion” value in [2] was “not observed”. Moreover, the “increase in amount of DHA recovered in lymph HDL, compared to free DHA absorption” value in data set [2] (lymph HDL) is recorded as greater than 2 fold. In addition, in data set [2] (some experiments), the “hydrolysis in the intestinal lumen (intestinal contents after the 6 h lymph collection)” value is listed as “no hydrolysis of LPC in the lumen”. Further, the “percent of whole lymph DHA appearing in PC, LPC compared to free fatty acid” value in data set [2] (whole lymph) was 5 times. Further, the “percent of whole lymph DHA appearing in PC” value in data set [2] (whole lymph, mean±SEM) was 18.72±2.88% and 18%. Also, in the data set on normal adult mice (probe trial), the “decrease in the latency to previous platform area, compared to the control or free DHA treated animals” value is listed as 7 fold and the “increase in the time spent in the target quadrant, compared to the control or free DHA treated animals” value is 2 fold. The “increase of DHA content in most regions of the brain (nmol of DHA per mg wet weight)” value in [3] (1 mg DHA/day, 30 days) is 2-3 fold. The “percentage of DHA in plasma” value in [3] (% of total fatty acids, 1 mg DHA/day, 30 days) is “greater”. Besides, in data set [7] (kinetic studies [7]), the “brain uptake of injected compound compared with free DHA” value is “higher”. The “efficiency of passing through the BBB compared with free fatty acid” value in data set [7] (previous studies in animals [5,6]) is reported as “about 10 times”.
